Three compounds from patent US20230241226A1, “COMPOUNDS FOR TARGETED DEGRADATION OF CARRIER PROTEINS AND USES THEREOF” (CeMM - Forschungszentrum für Molekulare Medizin GmbH, priority 2019, published 2023) can be followed below.

Common to all, as to type: cell-based
For one assay, the target named is T1, Strep/HA SLC9A1 (Homo sapiens, UniProt P19634).
T1 construct: expressed in transfected cells; host or cells: HAP1 (lentiviral, pRRL Strep-HA; cDNA synthesized by Genescript)
In words: Selectivity across SLC9 family: degradation of exogenous Strep/HA SLC9A1. As to conditions: HAP1; 250 or 750 nM; 16 hours. How it is done:
(§1) (E) Selectivity of d9A1-2 was tested across HAP1 cell lines expressing Strep/HASLC9A1, 9A4, 9A5, 9A8, 9A2, 9B2, 9A6, 9A9, and 9A3. Cells were treated with varying concentrations of d9A1-2 for 16 hours, after which degradation of the exogenous SLCs was monitored.
(§2) SLC1A5, SLC2A1, SLC2A3, SLC16A1, SLC38A1, SLC38A2 were obtained as gateway-compatible pENTR/pDONR vectors from the Harvard PlasmID Repository. SLC39A7 was obtained from Dharmacon, GE Healthcare. The following vectors were synthesized by Genescript: SLC4A4, SLC7A3, SLC38A9, SLC25A1, SLC9A1, SLC9A2, SLC9A3, SLC9A4, SLC9A5, SLC9A6, SLC9A7, SLC9A8, and SLC9B2. SLC30A9, SLC33A1, SLC35B2, SLC25A26, and MTCH2 were a gift from the RESOLUTE consortium. cDNAs were transferred into gateway-compatible lentiviral expression vectors: pLX305 dTAG vectors (Addgene #91797/8) or pRRL Strep-HA (described previously43, EF1a promotor driven expression) using LR recombination (ThermoFisher Scientific). […]
(§3) For immunoblotting, whole cell extracts were prepared using RIPA lysis buffer (25 mM Tris/HCl pH 7.6, 150 mM NaCl, 1% NP-40, 1% sodium deoxycholate, 0.1% SDS, EDTA-free protease inhibitor (Roche) and phosphatase inhibitors 2+3 (Sigma- Aldrich)). […] Protein extracts were quantified and normalized using the BCA assay (Thermo Scientific). […]

In a further assay the target is T2, Strep/HA SLC9A3 (Homo sapiens, UniProt P48764).
T2 construct: expressed in transfected cells; host or cells: HAP1 (lentiviral, pRRL Strep-HA; cDNA synthesized by Genescript)
T2 sequence (P48764 26-834): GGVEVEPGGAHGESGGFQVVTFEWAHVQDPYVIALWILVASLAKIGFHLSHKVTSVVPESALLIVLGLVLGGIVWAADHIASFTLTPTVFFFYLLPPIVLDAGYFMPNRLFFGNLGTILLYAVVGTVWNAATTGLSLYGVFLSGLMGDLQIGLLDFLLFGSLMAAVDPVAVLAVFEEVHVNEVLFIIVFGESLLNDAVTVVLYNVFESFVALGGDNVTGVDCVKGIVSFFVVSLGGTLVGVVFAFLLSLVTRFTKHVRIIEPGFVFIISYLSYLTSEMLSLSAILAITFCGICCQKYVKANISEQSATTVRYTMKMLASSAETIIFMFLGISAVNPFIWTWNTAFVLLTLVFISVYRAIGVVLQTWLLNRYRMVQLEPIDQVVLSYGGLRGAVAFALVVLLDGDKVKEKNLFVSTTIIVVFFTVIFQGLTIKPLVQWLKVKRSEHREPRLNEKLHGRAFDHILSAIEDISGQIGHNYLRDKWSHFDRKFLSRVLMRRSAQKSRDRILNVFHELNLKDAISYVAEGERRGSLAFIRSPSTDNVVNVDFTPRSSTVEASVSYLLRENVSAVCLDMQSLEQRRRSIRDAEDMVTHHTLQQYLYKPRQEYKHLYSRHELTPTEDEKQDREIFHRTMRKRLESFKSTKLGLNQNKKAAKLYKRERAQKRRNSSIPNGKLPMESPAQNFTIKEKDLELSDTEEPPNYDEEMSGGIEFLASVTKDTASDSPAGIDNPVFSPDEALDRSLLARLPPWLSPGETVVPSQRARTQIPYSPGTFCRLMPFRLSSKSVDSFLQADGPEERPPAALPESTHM
The assay can be described thus: Selectivity across SLC9 family: degradation of exogenous Strep/HA SLC9A3. The conditions noted are these: HAP1; 250 or 750 nM; 16 hours. How it is done: as §1, §2, §3

A further assay concerns the target T3, dTAG-HA SLC30A9 (Homo sapiens, UniProt Q6PML9+Q96SW2).
T3 construct: expressed in transfected cells
In words: Targeted degradation of dTAG-tagged SLC30A9 (western blot). As to conditions: HAP1, 0.5 µM. How it is done: (C)HAP1 cells expressing dTAG-HA SLC1A5, 2A3, 30A9, 35B2, MTCH2, and 33A1 were treated for 24 hours with 0.5 µM of dTAG7 or dTAG13, as indicated. HAP1 cells expressing dTAG-HA SLC2A1 and 16A1 were treated for 24 hrs with 0.5 µM of dTAG7. HAP1 cell lines expressing dTAG-HA SLC39A7, dTAG-HA SLC4A4, and SLC7A3-dTAG-HA were treated for 48 hrs with 0.5 µM of dTAG13.
SLC1A5, SLC2A1, SLC2A3, SLC16A1, SLC38A1, SLC38A2 were obtained as gateway-compatible pENTR/pDONR vectors from the Harvard PlasmID Repository. SLC39A7 was obtained from Dharmacon, GE Healthcare. The following vectors were synthesized by Genescript: SLC4A4, SLC7A3, SLC38A9, SLC25A1, SLC9A1, SLC9A2, SLC9A3, SLC9A4, SLC9A5, SLC9A6, SLC9A7, SLC9A8, and SLC9B2. […]
as §3
SLCs were ectopically expressed as fusions to a mutated FKBP domain, also known as the dTAG system. […]
(A western blot detects proteins with antibodies after separation by electrophoresis.)

The target in the next assay is T4, dTAG-HA SLC38A1 (Homo sapiens, UniProt Q96SW2+Q9H2H9).
T4 construct: expressed in transfected cells
T4 sequence (Q16531 whole entry): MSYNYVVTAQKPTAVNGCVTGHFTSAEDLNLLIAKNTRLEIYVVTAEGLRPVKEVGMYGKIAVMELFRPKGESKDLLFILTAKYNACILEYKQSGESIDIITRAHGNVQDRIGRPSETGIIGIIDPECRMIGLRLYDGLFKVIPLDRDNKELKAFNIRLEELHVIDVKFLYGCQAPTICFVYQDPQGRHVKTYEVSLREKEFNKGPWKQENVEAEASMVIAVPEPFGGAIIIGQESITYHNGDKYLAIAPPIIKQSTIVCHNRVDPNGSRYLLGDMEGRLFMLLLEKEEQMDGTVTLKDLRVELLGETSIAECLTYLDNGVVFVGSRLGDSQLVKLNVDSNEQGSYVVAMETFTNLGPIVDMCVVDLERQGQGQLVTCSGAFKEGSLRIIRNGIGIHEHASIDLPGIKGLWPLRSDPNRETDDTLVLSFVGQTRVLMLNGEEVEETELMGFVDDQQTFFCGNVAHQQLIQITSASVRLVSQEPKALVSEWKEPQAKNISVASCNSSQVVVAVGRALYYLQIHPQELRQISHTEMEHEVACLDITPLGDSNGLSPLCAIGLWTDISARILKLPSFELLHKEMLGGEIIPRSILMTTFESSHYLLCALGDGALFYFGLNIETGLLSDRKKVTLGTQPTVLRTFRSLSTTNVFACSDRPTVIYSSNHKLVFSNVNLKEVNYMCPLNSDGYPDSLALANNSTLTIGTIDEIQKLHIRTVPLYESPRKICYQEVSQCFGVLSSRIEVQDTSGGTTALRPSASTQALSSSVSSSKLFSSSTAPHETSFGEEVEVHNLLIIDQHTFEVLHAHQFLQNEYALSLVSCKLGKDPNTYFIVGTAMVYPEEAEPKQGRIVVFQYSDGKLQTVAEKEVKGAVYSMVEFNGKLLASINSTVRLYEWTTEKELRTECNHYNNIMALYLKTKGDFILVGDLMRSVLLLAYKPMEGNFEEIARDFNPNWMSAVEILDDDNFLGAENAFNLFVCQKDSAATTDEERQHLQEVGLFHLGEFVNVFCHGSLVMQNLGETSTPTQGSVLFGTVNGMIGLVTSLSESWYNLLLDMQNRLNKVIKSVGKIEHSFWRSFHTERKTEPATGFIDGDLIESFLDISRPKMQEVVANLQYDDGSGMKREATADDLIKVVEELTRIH
T4 sequence (Q9H2H9 other isoform, or with tags, fused parts or gaps): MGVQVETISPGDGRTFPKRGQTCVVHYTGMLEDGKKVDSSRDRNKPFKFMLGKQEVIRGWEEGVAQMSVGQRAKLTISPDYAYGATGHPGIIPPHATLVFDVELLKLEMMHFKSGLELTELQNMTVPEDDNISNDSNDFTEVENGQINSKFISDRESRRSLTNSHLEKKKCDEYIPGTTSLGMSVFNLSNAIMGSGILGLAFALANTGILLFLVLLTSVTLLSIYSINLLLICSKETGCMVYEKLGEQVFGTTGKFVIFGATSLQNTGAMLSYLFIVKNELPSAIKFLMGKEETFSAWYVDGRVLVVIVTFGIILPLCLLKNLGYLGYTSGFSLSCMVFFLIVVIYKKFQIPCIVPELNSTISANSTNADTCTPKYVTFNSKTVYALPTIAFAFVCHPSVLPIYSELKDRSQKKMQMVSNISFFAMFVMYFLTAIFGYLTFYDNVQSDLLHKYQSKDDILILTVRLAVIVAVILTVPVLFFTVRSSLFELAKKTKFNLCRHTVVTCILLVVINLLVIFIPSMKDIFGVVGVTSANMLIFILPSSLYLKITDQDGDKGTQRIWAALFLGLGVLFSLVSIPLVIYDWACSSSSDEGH
T4 sequence (Q96SW2 whole entry): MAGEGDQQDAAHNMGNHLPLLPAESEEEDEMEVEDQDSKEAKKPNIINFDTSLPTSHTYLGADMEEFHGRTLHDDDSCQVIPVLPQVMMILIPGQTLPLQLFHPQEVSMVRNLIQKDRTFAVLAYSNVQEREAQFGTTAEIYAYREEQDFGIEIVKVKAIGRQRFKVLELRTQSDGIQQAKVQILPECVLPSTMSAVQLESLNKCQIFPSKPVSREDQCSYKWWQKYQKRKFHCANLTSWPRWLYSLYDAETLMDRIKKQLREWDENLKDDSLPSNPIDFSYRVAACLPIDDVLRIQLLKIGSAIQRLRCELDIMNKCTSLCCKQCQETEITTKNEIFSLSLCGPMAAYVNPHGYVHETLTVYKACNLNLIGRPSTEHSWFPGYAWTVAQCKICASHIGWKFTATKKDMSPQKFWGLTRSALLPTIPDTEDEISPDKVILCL
In words: Targeted degradation of dTAG-tagged SLC38A1 (western blot). How it is done:
(A) HAP1 cells expressing dTAG-HA SLC38A9, 38A2, or 38A1 were treated with 0.5 µM dTAG13 for 16, 24 or 48 hours.
as §2, §3
SLCs were ectopically expressed as fusions to a mutated FKBP domain, also known as the dTAG system. […] Each of the tested SLCs was stably expressed in HAP1 cells, and subcellular localization was assessed by immunofluorescence microscopy (FIG. 1B). […]

T1 sequence (P19634 whole entry): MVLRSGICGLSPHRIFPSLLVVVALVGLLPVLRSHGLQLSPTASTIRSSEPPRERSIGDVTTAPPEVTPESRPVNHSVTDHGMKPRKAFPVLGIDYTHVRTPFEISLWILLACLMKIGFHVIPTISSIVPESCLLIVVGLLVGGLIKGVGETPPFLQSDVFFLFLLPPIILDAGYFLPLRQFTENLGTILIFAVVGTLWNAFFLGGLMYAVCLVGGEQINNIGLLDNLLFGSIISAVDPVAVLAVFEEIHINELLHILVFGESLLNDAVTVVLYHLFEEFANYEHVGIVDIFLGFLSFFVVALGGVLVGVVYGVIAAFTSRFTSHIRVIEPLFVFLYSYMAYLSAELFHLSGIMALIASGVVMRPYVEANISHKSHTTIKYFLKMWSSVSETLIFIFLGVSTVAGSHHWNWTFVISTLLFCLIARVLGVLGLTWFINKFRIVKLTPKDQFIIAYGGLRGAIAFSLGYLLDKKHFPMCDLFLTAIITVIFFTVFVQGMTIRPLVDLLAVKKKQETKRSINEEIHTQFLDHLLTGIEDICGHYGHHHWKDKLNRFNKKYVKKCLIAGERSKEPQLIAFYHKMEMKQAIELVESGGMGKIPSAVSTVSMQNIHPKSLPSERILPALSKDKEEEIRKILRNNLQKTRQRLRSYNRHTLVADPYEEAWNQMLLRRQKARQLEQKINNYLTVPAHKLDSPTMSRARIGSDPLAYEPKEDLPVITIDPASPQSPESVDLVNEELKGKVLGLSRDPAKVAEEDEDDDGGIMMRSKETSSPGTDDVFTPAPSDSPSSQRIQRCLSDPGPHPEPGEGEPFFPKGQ
T3 sequence (Q6PML9 with tags, fused parts or gaps): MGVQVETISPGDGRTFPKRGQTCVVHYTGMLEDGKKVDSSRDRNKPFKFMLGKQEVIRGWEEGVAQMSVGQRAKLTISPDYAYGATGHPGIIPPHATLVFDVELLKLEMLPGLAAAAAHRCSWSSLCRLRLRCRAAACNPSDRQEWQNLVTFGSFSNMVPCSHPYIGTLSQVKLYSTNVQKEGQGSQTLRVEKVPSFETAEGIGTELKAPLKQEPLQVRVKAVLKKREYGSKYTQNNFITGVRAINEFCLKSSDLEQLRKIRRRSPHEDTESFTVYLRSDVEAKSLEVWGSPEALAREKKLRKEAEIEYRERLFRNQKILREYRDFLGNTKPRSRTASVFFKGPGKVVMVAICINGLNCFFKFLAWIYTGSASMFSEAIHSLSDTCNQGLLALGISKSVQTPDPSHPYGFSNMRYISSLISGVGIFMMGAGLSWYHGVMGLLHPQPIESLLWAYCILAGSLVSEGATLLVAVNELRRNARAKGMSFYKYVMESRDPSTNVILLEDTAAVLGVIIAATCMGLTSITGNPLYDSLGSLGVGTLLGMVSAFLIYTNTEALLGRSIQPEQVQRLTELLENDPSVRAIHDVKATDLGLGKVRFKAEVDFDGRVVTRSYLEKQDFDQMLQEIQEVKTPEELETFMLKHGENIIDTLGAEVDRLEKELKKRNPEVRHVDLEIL
T3 sequence (Q96SW2 whole entry): as the sequence (Q96SW2 whole entry) above
T3 sequence (Q16531 whole entry partner): as the sequence (Q16531 whole entry) above

With `Cc1cc(-c2ccc(C(=O)NCCOCCOCCOCCOCCNc3cccc4c3C(=O)N(C3CCC(=O)NC3=O)C4=O)cc2N2CCC(c3[nH]cnc3C)CC2)ccc1F` (centres unmarked) [d9A1-2], the “degradation of exogenous SLC9A1” value at Strep/HA SLC9A1 is listed as “most efficient degradation”. For the same compound, the “abundance of exogenous SLC9A3” value on Strep/HA SLC9A3 is recorded as “not significantly affected”.

With `CC[C@H](C(=O)N1CCCC[C@H]1C(=O)O[C@H](CCc1ccc(OC)c(OC)c1)c1ccccc1OCC(=O)NCCCOCCOCCOCCCNC(=O)COc1cccc2c1C(=O)N(C1CCC(=O)NC1=O)C2=O)c1cc(OC)c(OC)c(OC)c1` (some centres unmarked) [dTAG7], on dTAG-HA SLC30A9, the “initiation of degradation (time course)” value is not above 6 h.

Regarding `CC[C@H](C(=O)N1CCCC[C@H]1C(=O)O[C@H](CCc1ccc(OC)c(OC)c1)c1ccccc1OCC(=O)NCCCCCCOc1cccc2c1C(=O)N(C1CCC(=O)NC1=O)C2=O)c1cc(OC)c(OC)c(OC)c1` (some centres unmarked) [dTAG13], the “degradation of the target SLC” value on dTAG-HA SLC38A1 (HAP1, dTAG-HA SLC38A1, 0.5 µM, 16, 24 or 48 hours) was “Near-complete degradation”. For the same compound, the “degradation of dTAG-HA SLC38A1 (antibodies against HA-tag and total protein)” value on dTAG-HA SLC38A1 (HAP1 or 293T, PNGase de-glycosylated extracts) is reported as “completely degraded”.
